Assay [1] has as its system glucocorticoid receptor function. Kind of assay: one or more of the above assays (GR binding and glucocorticoid receptor cell assays: aromatase, IL-6, TAT, MMTV-Luc, IL-8, ICAM-Luc). It counts as cell-based. Conditions: assay not specified per compound.
Assay [2] addresses T1, human glucocorticoid receptor (GR) complex (Homo sapiens, UniProt P04150).
T1 construct: made in house; host or cells: insect expression system (baculovirus lysate)
T1 sequence (P04150 1-777): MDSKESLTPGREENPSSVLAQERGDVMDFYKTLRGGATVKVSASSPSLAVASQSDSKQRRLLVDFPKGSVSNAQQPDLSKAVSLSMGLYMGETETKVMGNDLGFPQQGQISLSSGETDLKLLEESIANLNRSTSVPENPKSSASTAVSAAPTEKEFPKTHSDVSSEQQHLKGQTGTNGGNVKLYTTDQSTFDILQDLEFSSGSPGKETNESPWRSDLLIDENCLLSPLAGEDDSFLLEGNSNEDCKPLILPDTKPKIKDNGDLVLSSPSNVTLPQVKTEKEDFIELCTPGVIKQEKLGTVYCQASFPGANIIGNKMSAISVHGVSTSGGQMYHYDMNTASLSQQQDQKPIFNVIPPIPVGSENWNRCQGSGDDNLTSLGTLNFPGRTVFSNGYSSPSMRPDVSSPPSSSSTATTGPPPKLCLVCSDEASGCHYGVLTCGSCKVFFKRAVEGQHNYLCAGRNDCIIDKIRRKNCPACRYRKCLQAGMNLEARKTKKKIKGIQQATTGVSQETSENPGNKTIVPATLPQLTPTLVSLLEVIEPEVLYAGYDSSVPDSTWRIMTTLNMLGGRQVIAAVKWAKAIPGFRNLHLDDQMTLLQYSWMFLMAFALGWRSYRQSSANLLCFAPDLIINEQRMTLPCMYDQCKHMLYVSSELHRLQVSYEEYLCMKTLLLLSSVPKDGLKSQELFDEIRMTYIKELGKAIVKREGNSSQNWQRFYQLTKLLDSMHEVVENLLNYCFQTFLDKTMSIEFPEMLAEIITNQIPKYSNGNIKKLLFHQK
Description: Glucocorticoid receptor competitive binding assay (fluorescence polarization, TAMRA-labeled dexamethasone probe). Conditions: compounds of Formula (IA). Summed up:
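Fluorescence-polarization competition against 15 nM TAMRA-dexamethasone (stock added to the mix) for human GR complex from baculovirus lysate diluted 1:170. Buffer: 10 mM TES, 50 mM KCl, 20 mM Na2MoO4, 1.5 mM EDTA, 0.04% CHAPS, 10% glycerol, 1 mM DTT, pH 7.4. IC50 from 4-parameter logistic fit.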

For the molecule `Cc1cccc(C)c1C(C)(C)CC(O)(Cc1cc2ccccc2[nH]1)C(F)(F)F` (centres unmarked) [4-(2,6-Dimethylphenyl)-1,1,1-trifluoro-2-(1H-indol-2-ylmethyl)-4-methylpentan-2-ol], the “activity as agonists of the glucocorticoid receptor function in one or more of the above assays” value (shortened to “activity as agonists”) in assay [1] is “potent agonists”. Further, the “activity in the GR binding assay” value in assay [2] was “potent activity”.
The matching figures for `COc1ccc(F)cc1C(C)(C)CC(O)(Cc1cc(C)nc2ccccc12)C(F)(F)F` (centres unmarked) [1,1,1-Trifluoro-4-(5-fluoro-2-methoxyphenyl)-4-methyl-2-(2-methylquinolin-4-ylmethyl)pentan-2-ol]: “potent agonists” and “potent activity”.
The matching figures for `COc1cc2cc(CC(O)(CC(C)(C)c3cc(F)ccc3OC)C(F)(F)F)[nH]c2cn1` (centres unmarked) [1,1,1-Trifluoro-4-(5-fluoro-2-methoxyphenyl)-2-(5-methoxy-1H-pyrrolo[2,3-c]pyridin-2-ylmethyl)-4-methylpentan-2-ol]: “potent agonists” and “potent activity”.
On the same counts, the results for `Cc1ccc(F)cc1C(C)(C)CC(O)(Cc1cc2cc(N(C)C)ncc2[nH]1)C(F)(F)F` (centres unmarked) [2-(5-Dimethylamino-1H-pyrrolo[2,3-c]pyridin-2-ylmethyl)-1,1,1-trifluoro-4-(5-fluoro-2-methylphenyl)-4-methylpentan-2-ol] are “potent agonists” and “potent activity”.
Take `Cc1ccc(C(C)(C)CC(O)(Cc2ccnc3ccccc23)C(F)(F)F)cc1F` (centres unmarked) [1,1,1-Trifluoro-4-(3-fluoro-4-methylphenyl)-4-methyl-2-quinolin-4-ylmethylpentan-2-ol]: in assay [1], the “activity as agonists” value is “potent agonists”. In assay [2], the “activity in the GR binding assay” value is given as “potent activity”.
On the same counts, the results for `Cc1cc(C#N)cc2[nH]c(CC(O)(CC(C)(C)c3cc(Br)cc4c3OCC4)C(F)(F)F)cc12` (centres unmarked) [2-[4-(5-Bromo-2,3-dihydrobenzofuran-7-yl)-2-hydroxy-4-methyl-2-trifluoromethylpentyl]-4-methyl-1H-indole-6-carbonitrile] are “potent agonists” and “potent activity”.
On the same counts, the results for `CC(C)(CC(O)(Cc1cc2ccc(C#N)cc2[nH]1)C(F)(F)F)c1cc(F)ccc1O` (centres unmarked) [2-[4-(5-Fluoro-2-hydroxyphenyl)-2-hydroxy-4-methyl-2-trifluoromethylpentyl]-1H-indole-6-carbonitrile] are “potent agonists” and “potent activity”.
The matching figures for `Cc1cc(CC(O)(CC(C)(C)c2ccc(F)cc2O)C(F)(F)F)cc(C)n1` (centres unmarked) [2-[3-(2,6-Dimethylpyridin-4-ylmethyl)-4,4,4-trifluoro-3-hydroxy-1,1-dimethylbutyl]-5-fluorophenol]: “potent agonists” and “potent activity”.
For the molecule `Cc1cccc(C(C)(C)CC(O)(Cc2ccnc3ccccc23)C(F)(F)F)c1` (centres unmarked) [1,1,1-Trifluoro-4-methyl-2-quinolin-4-ylmethyl-4-m-tolylpentan-2-ol], in assay [1], the “activity as agonists” value is given as “potent agonists”. Moreover, in assay [2], the “activity in the GR binding assay” value is on record as “potent activity”.
As for `COC(=O)CCCNC(=O)c1ccc2[nH]c(CC(O)(CC(C)(C)c3cc(F)ccc3OC)C(F)(F)F)cc2c1` (centres unmarked) [4-({2-[4-(5-Fluoro-2-methoxyphenyl)-2-hydroxy-4-methyl-2-trifluoromethylpentyl]-1H-indole-5-carbonyl}amino)butyric acid methyl ester], the “activity as agonists” value in assay [1] is “potent agonists”. Moreover, the “activity in the GR binding assay” value in assay [2] is “potent activity”.
The matching figures for `CN(C)c1ccc(C(C)(C)CC(O)(Cc2ccnc3ccccc23)C(F)(F)F)cc1` (centres unmarked) [4-(4-Dimethylaminophenyl)-1,1,1-trifluoro-4-methyl-2-quinolin-4-ylmethylpentan-2-ol]: “potent agonists” and “potent activity”.
On the same counts, the results for `Cc1cc(C)c(O)c(C(C)(C)CC(O)(Cc2[nH]c3ccccc3c2C#N)C(F)(F)F)c1` (centres unmarked) [2-[2-Hydroxy-4-(2-hydroxy-3,5-dimethylphenyl)-4-methyl-2-trifluoromethylpentyl]-1H-indole-3-carbonitrile] are “potent agonists” and “potent activity”.
The matching figures for `CC(C)(CC(O)(Cc1ccnc2ccccc12)C(F)(F)F)c1cccc(F)c1` (centres unmarked) [1,1,1-Trifluoro-4-(3-fluorophenyl)-4-methyl-2-quinolin-4-ylmethylpentan-2-ol]: “potent agonists” and “potent activity”.
As to `COc1ccc(F)cc1C(C)(C)CC(O)(Cc1[nH]c2ccncc2c1CN(C)C)C(F)(F)F` (centres unmarked) [2-(3-Dimethylaminomethyl-1H-pyrrolo[3,2-c]pyridin-2-ylmethyl)-1,1,1-trifluoro-4-(5-fluoro-2-methoxyphenyl)-4-methylpentan-2-ol], the “activity as agonists” value in assay [1] was “potent agonists”. In addition, the “activity in the GR binding assay” value in assay [2] is given as “potent activity”.
The matching figures for `Cc1ccc(C(C)(C)CC(O)(Cc2cc3ccccc3[nH]2)C(F)(F)F)cc1F` (centres unmarked) [1,1,1-Trifluoro-4-(3-fluoro-4-methylphenyl)-2-(1H-indol-2-ylmethyl)-4-methylpentan-2-ol]: “potent agonists” and “potent activity”.
The matching figures for `Cc1ccc(O)c(C(C)(C)CC(O)(Cc2cc3ccccc3[nH]2)C(F)(F)F)c1` (centres unmarked) [4-Methyl-2-[4,4,4-trifluoro-3-hydroxy-3-(1H-indol-2-ylmethyl)-1,1-dimethylbutyl]phenol]: “potent agonists” and “potent activity”.
The matching figures for `COc1ccc(F)cc1C(C)(C)CC(O)(Cc1cc2cnccc2[nH]1)C(F)F` (centres unmarked) [1,1-Difluoro-4-(5-fluoro-2-methoxyphenyl)-4-methyl-2-(1H-pyrrolo[3,2-c]pyridin-2-ylmethyl)pentan-2-ol]: “potent agonists” and “potent activity”.
Turning to `Cc1ccc(C(C)(C)CC(O)(Cc2cc3ccccc3[nH]2)C(F)(F)F)cc1C` (centres unmarked) [4-(3,4-Dimethylphenyl)-1,1,1-trifluoro-2-(1H-indol-2-ylmethyl)-4-methylpentan-2-ol], the “activity as agonists” value in assay [1] is given as “potent agonists”. The “activity in the GR binding assay” value in assay [2] was “potent activity”.
On the same counts, the results for `Cc1ccc(F)cc1C(C)(C)CC(O)(Cn1ccc2ncccc21)C(F)(F)F` (centres unmarked) [1,1,1-Trifluoro-4-(5-fluoro-2-methylphenyl)-4-methyl-2-pyrrolo[3,2-b]pyridin-1-ylmethylpentan-2-ol] are “potent agonists” and “potent activity”.
On the same counts, the results for `COc1ccc(F)cc1C(C)(C)CC(O)(Cc1cc2nnccc2[nH]1)C(F)(F)F` (centres unmarked) [1,1,1-Trifluoro-4-(5-fluoro-2-methoxyphenyl)-4-methyl-2-(5H-pyrrolo[3,2-c]pyridazin-6-ylmethyl)pentan-2-ol] are “potent agonists” and “potent activity”.
The matching figures for `Cc1cc(CC(O)(CC(C)(C)c2cc(F)ccc2O)C(F)(F)F)c2ccccc2n1` (centres unmarked) [4-Fluoro-2-[4,4,4-trifluoro-3-hydroxy-1,1-dimethyl-3-(2-methylquinolin-4-ylmethyl)butyl]phenol]: “potent agonists” and “potent activity”.
`COc1ccc(F)cc1C(C)(C)CC(O)(Cc1ccnc2c(C)cc(C)cc12)C(F)(F)F` (centres unmarked) [2-(6,8-Dimethylquinolin-4-ylmethyl)-1,1,1-trifluoro-4-(5-fluoro-2-methoxyphenyl)-4-methylpentan-2-ol]: the “activity as agonists” value in assay [1] is listed as “potent agonists”. In assay [2], the “activity in the GR binding assay” value is reported as “potent activity”.
